Assay results: patent publication US10251885B2, “Azole antifungal compositions” (ALLERGAN PHARMACEUTICALS INTERNATIONAL LIMITED, priority 2009, dated 2019)
Converted amounts (≈) assume the structure as drawn.

Key:
E. flucossum [1] = experiment: Microdilution assay, minimum fungicidal concentration (MFC); type: cell-based, Epidermophyton flucossum; settings: n = 5 strains
Method: (§1) Multiple strains of Trichophyton rubrum, Trichophyton mentagrophytes and Epidermophyton flucossum were obtained from the culture collection facility at the Center for Medical Mycology (University Hospitals of Cleveland/Case Western Reserve University, Cleveland, Ohio). The minimum inhibitory concentration (MICs) for albaconazole, ciclopirox and terbinafine against each dermatophyte strain was determined according to the method approved by the CLSI Antifungal Subcommittee as a reference method for determining dermatophyte susceptibilities (Ghannoum et al., J. Clin. Microbiol. 42: 2977-2979, 2004). […] Microbiol. Infect. Dis. 45:203-206, 2003.
(§2) Tables 1 and 2 describe the minimum inhibitory concentrations (in ug/mL) and the minimum fungicidal concentrations (in ug/mL), respectively, for the active agents against the dermatophyte strains.

[2] = test system: T. rubrum elevated terbinafine (MIC); experiment: Microdilution assay, minimum inhibitory concentration (MIC); type: cell-based, Trichophyton rubrum; settings: for MIC Range / MIC50 / MIC90: T. rubrum elevated terbinafine (MIC), n = 3 strains; for MIC50 / MIC90: Trichophyton rubrum
Method: as §1, §2

T. rubrum [3] = experiment: as above; type: cell-based, Trichophyton rubrum; settings: n = 2 strains; for MIC50 / MIC90: Trichophyton rubrum
Method: as §1, §2

[4] = test system: T. rubrum elevated terbinafine (MIC); experiment: Microdilution assay, minimum fungicidal concentration (MFC); type: cell-based, Trichophyton rubrum; settings: n = 3 strains
Method: as §1, §2

T. rubrum [5] = experiment: as above; type: cell-based, Trichophyton rubrum; settings: n = 2 strains
Method: as §1, §2

E. flucossum [6] = experiment: Microdilution assay, minimum inhibitory concentration (MIC); type: cell-based, Epidermophyton flucossum; settings: n = 5 strains; for MIC50 / MIC90: Epidermophyton
Method: as §1, §2

All Dermatophytes [7] = experiment: as above; type: cell-based; settings: for MIC50 / MIC90 / MIC Range: All Dermatophytes, n = 15 strains
Method: as §1, §2

All Dermatophytes [8] = experiment: Microdilution assay, minimum fungicidal concentration (MFC); type: cell-based; settings: for MFC50 / MFC90 / MFC Range: All Dermatophytes, n = 15 strains
Method: as §1, §2

T. mentagrophytes [9] = experiment: Microdilution assay, minimum inhibitory concentration (MIC); type: cell-based, Trichophyton mentagrophytes; settings: n = 5 strains; for MIC50 / MIC90: Trichophyton mentagrophytes
Method: as §1, §2

T. mentagrophytes [10] = experiment: Microdilution assay, minimum fungicidal concentration (MFC); type: cell-based, Trichophyton mentagrophytes; settings: n = 5 strains
Method: as §1, §2

MIC Range [2] [µg/mL]	MIC50 [2] [µg/mL]	MIC90 [2] [µg/mL]	MIC50 (T. rubrum [3]) [µg/mL]	MIC90 (T. rubrum [3]) [µg/mL]	MIC Range (T. rubrum [3]) [µg/mL]	MIC50 (E. flucossum [6]) [µg/mL]	MIC90 (E. flucossum [6]) [µg/mL]	MIC Range (E. flucossum [6]) [µg/mL]	MIC50 (All Dermatophytes [7]) [µg/mL]	MIC90 (All Dermatophytes [7]) [µg/mL]	Structure (SMILES)	MFC50 (E. flucossum [1]) [µg/mL]	MFC90 (E. flucossum [1]) [µg/mL]	MFC50 [4] [µg/mL]	MFC90 [4] [µg/mL]	MFC50 (T. rubrum [5]) [µg/mL]	MFC90 (T. rubrum [5]) [µg/mL]	MFC Range (T. rubrum [5]) [µg/mL]	MFC50 (All Dermatophytes [8]) [µg/mL]	MFC90 (All Dermatophytes [8]) [µg/mL]	other results
0.12 (≈ 0.579 µM)	0.12 (≈ 0.579 µM)	0.12 (≈ 0.579 µM)	0.12 (≈ 0.579 µM)	0.12 (≈ 0.579 µM)	0.12 (≈ 0.579 µM)	0.12 (≈ 0.579 µM)	0.12 (≈ 0.579 µM)	0.12 (≈ 0.579 µM)	0.12 (≈ 0.579 µM)	0.25 (≈ 1.21 µM)	Cc1cc(C2CCCCC2)n(O)c(=O)c1 [Ciclopirox, ciclopirox]	4 (≈ 19.3 µM)	>32	16 (≈ 77.2 µM)	>32	16 (≈ 77.2 µM)	32 (≈ 154 µM)	16 to 32	16 (≈ 77.2 µM)	>32	MIC50 (T. mentagrophytes [9]): 0.25 µg/mL (≈ 1.21 µM); MIC90 (T. mentagrophytes [9]): 0.25 µg/mL (≈ 1.21 µM); MIC Range (T. mentagrophytes [9]): 0.12 to 0.25 µg/mL; MFC50 (T. mentagrophytes [10]): >32 µg/mL; MFC90 (T. mentagrophytes [10]): >32 µg/mL
0.015 to 0.25	0.06 (≈ 0.139 µM)	0.25 (≈ 0.579 µM)	0.06 (≈ 0.139 µM)	0.06 (≈ 0.139 µM)	0.06 (≈ 0.139 µM)	0.015 (≈ 0.0347 µM)	0.015 (≈ 0.0347 µM)	0.008 to 0.015	0.06 (≈ 0.139 µM)	0.25 (≈ 0.579 µM)	C[C@@H](n1cnc2cc(Cl)ccc2c1=O)[C@](O)(Cn1cncn1)c1ccc(F)cc1F [Albaconazole, (1R,2R)-7-chloro-3-[2-(2,4-difluorophenyl)-2-hydroxy-1-methyl-3-(1H-1,2,4-triazol-1yl)propyl]quinazolin-4(3H)-one]	0.25 (≈ 0.579 µM)	8 (≈ 18.5 µM)	0.25 (≈ 0.579 µM)	1 (≈ 2.32 µM)	0.5 (≈ 1.16 µM)	8 (≈ 18.5 µM)	0.5 to 8	0.5 (≈ 1.16 µM)	8 (≈ 18.5 µM)	MFC Range (E. flucossum [1]): 0.06 to 8 µg/mL; effectiveness against terbinafine-resistant Trichophyton rubrum strains ([2]; compared with terbinafine, in words): more effective; MFC Range [4]: 0.06 to 1 µg/mL; MIC Range (All Dermatophytes [7]): 0.008 to 0.5 µg/mL; MICs overall, compared with ciclopirox and terbinafine (All Dermatophytes [7]; overall, in words): lower than those for ciclopirox and similar to those for terbinafine; MFC Range (All Dermatophytes [8]): 0.06 to 8 µg/mL; MFCs overall, compared with ciclopirox and terbinafine (All Dermatophytes [8]; overall, in words): lower than those for ciclopirox and similar to those for terbinafine; MIC50 (T. mentagrophytes [9]): 0.12 µg/mL (≈ 0.278 µM); MIC90 (T. mentagrophytes [9]): 0.5 µg/mL (≈ 1.16 µM); MIC Range (T. mentagrophytes [9]): 0.12 to 0.5 µg/mL; MFC50 (T. mentagrophytes [10]): 1 µg/mL (≈ 2.32 µM); MFC90 (T. mentagrophytes [10]): 8 µg/mL (≈ 18.5 µM); MFC Range (T. mentagrophytes [10]): 0.5 to 8 µg/mL
8 to 32	8 (≈ 27.5 µM)	32 (≈ 110 µM)	0.002 (≈ 0.00686 µM)	0.002 (≈ 0.00686 µM)	0.002 (≈ 0.00686 µM)	0.002 (≈ 0.00686 µM)	0.008 (≈ 0.0275 µM)	0.002 to 0.008	0.002 (≈ 0.00686 µM)	8 (≈ 27.5 µM)	CN(C/C=C/C#CC(C)(C)C)Cc1cccc2ccccc12 [Terbinafine, terbinafine]	0.03 (≈ 0.103 µM)	0.03 (≈ 0.103 µM)	32 (≈ 110 µM)	>64	0.008 (≈ 0.0275 µM)	0.008 (≈ 0.0275 µM)	0.008 (≈ 0.0275 µM)	0.015 (≈ 0.0515 µM)	32 (≈ 110 µM)	MIC Range (All Dermatophytes [7]): 0.002 to 32 µg/mL; MFC Range (All Dermatophytes [8]): 0.008 µg/mL (≈ 0.0275 µM); MIC50 (T. mentagrophytes [9]): 0.002 µg/mL (≈ 0.00686 µM); MIC90 (T. mentagrophytes [9]): 0.004 µg/mL (≈ 0.0137 µM); MIC Range (T. mentagrophytes [9]): 0.002 to 0.004 µg/mL; MFC50 (T. mentagrophytes [10]): 0.015 µg/mL (≈ 0.0515 µM); MFC90 (T. mentagrophytes [10]): 0.03 µg/mL (≈ 0.103 µM); MFC Range (T. mentagrophytes [10]): 0.015 to 0.03 µg/mL
